Results on 25 compounds are retold here after patent publication US5034543A, “Ascorbic acid derivative and use as antioxidants” (Nippon Hypox Laboratories Incorporated, priority 1989, dated 1991).

Assay [1] in a line: Antioxidant action examined by using stable radicals: reduction activity of DPPH (Blois method, absorbance at 517 nm). To be noted: 0.1 mM DPPH in ethanol, after 20 minutes, read-out: 50% radical eliminating concentration. The procedure:
(Antioxidant action examined by using stable radicals)
Reduction activity of α,α-diphenyl-β-picrylhydrazyl (DPPH) which was a stable free radical was examined according to the M. S. Blois method (Nature, vol. 181, page. 1199, 1958) and used as an index to antioxidant action. Thus, specimens were added to 3 ml of a 0.1 mM DPPH solution in ethanol, and absorbance at a wavelength of 517 nm was measured using a spectrophotometer after 20 minutes. The difference in absorbance from the solvent control [0.5% or less of dimethylformamide (DMF)] was taken as the reduction activity.
A general note: Loss of DPPH colour is used to gauge radical scavenging.

Assay [2] can be described thus: Effects on formazan formation in the xanthine-xanthine oxidase-Nitrotetrazolium Blue system. To be noted: for Inhibition ratio of formazan formation: pH 7.8, 30° C., 10 minutes; for inhibition of formazan formation (result in words): xanthine-xanthine oxidase-NTB system. The class given is biochemical. As for the experimental part: (Effects on formazan formation in the xanthine-xanthine oxidase-Nitrotetrazolium Blue system)
Specimens were added to a 0.05M phosphate buffer solution (pH 7.8) containing xanthine, EDTA 2Na and Nitrotetrazolium Blue (NTB) so as to provide the respective final concentrations of 5×10^-5 M, 1×10^-4 M and 5×10^-4 M and warmed at 30° C. for 3 minutes. Xanthine oxidase (manufactured by Sigma Corp.) was added, and the resulting specimens were warmed at 30° C. for 10 minutes to colorimetrically determine formazan formed by superoxide anion radicals. The inhibition ratio of formazan formation was determined from the results at concentrations of 0.5 mM and 4 mM of each specimen.

With `COCOC1=C(O)C(=O)O[C@@H]1[C@@H]1COC(C)(C)O1` [Compound 013], the IC50 in assay [1] is 17 µM.

`CCCCCCCCCCCCOC1=C(O)C(=O)O[C@@H]1[C@@H]1COC(C)(C)O1` [Compound 002]: in assay [1], the IC50 was 29 µM.

With `CCCCOC1=C(O)C(=O)O[C@@H]1[C@@H]1COC(C)(C)O1` [Compound 004], in assay [1], the IC50 came to 25 µM.

Consider `CCC(=O)COC1=C(O)C(=O)O[C@@H]1[C@@H]1COC(C)(C)O1` [Compound 022, L-5,6-O-isopropylidene-3-O-(3-butanone) ascorbic acid], for which the “Inhibition ratio of formazan formation” value in assay [2] (0.5 mM) was found to be 22.6%; in assay [2] (4 mM) it was 26.7%. Further, the “inhibition of formazan formation (result in words)” value in assay [2] is given as “remarkably inhibited formazan formation”. Besides, the IC50 in assay [1] stood at 20 µM.

On to `CCCCCCCCOC1=C(O)C(=O)O[C@@H]1[C@@H]1COC(C)(C)O1` [Compound 003], for which the IC50 in assay [1] worked out at 27 µM.

As to `CC1(C)OC[C@@H]([C@H]2OC(=O)C(O)=C2OCc2ccccc2)O1` [Compound 006], in assay [1], the IC50 came out at 22 µM.

Regarding `CCOC(=O)COC1=C(O)C(=O)O[C@@H]1[C@@H]1COC(C)(C)O1` [Compound 020], the IC50 in assay [1] was 23 µM.

Take `CC1(C)OC[C@@H]([C@H]2OC(=O)C(O)=C2OCCO)O1` [Compound 012]: the IC50 in assay [1] came to 35 µM.

In the case of `CC1(C)OC[C@@H]([C@H]2OC(=O)C(O)=C2OCCCCCCCCCCCCCCCCC(=O)O)O1` [Compound 009], in assay [1], the IC50 was 25 µM.

In the case of `CCCCCCCCCCCCCCCCCCOC1=C(O)C(=O)O[C@@H]1[C@@H]1COC(C)(C)O1` [Compound 001], the IC50 in assay [1] worked out at 30 µM.

In the case of `CCCCCCCCCCOC(=O)COC1=C(O)C(=O)O[C@@H]1[C@@H]1COC(C)(C)O1` [Compound 018], the IC50 in assay [1] is 28 µM.

As to `CCOC(=O)CCCCOC1=C(O)C(=O)O[C@@H]1[C@@H]1COC(C)(C)O1` [Compound 008], the IC50 in assay [1] was determined as 16 µM.

For the compound `CCOC(=O)C(C)OC1=C(O)C(=O)O[C@@H]1[C@@H]1COC(C)(C)O1` (stereo partly shown) [Compound 014], in assay [1], the IC50 is 26 µM.

Regarding `CC(C)(C)OC(=O)COC1=C(O)C(=O)O[C@@H]1[C@@H]1COC(C)(C)O1` [Compound 017], the IC50 in assay [1] stood at 25 µM.

As to `CC1(C)OC[C@@H]([C@H]2OC(=O)C(O)=C2OCC(=O)O)O1` [Compound 015], the IC50 in assay [1] stood at 31 µM.

Regarding `CC(=O)COC1=C(O)C(=O)O[C@@H]1[C@@H]1COC(C)(C)O1` [Compound 021, L-5,6-O-isopropylidene-3-O-methylcarbomethylascorbic acid], the “Inhibition ratio of formazan formation” value in assay [2] (0.5 mM) was found to be 9.2%; in assay [2] (4 mM), 47.4%. Moreover, the “inhibition of formazan formation (result in words)” value in assay [2] is recorded as “remarkably inhibited formazan formation”. The IC50 in assay [1] was determined as 17 µM.

Take `CCOC(=O)CCCOC1=C(O)C(=O)O[C@@H]1[C@@H]1COC(C)(C)O1` [Compound 010]: the IC50 in assay [1] turned out to be 16 µM.

In the case of `CC1(C)OC[C@@H]([C@H]2OC(=O)C(O)=C2OCc2cccnc2)O1` [Compound 007], in assay [1], the IC50 stood at 23 µM.

With `C=CCOC1=C(O)C(=O)O[C@@H]1[C@@H]1COC(C)(C)O1` [Compound 011], the IC50 in assay [1] is 33 µM.

For the compound `CCCCOC(=O)COC1=C(O)C(=O)O[C@@H]1[C@@H]1COC(C)(C)O1` [Compound 019], in assay [1], the IC50 stood at 25 µM.

Turning to `CCOC1=C(O)C(=O)O[C@@H]1[C@@H]1COC(C)(C)O1` [Compound 025], the IC50 in assay [1] amounted to 22 µM.

Regarding `CCC(C)OC1=C(O)C(=O)O[C@@H]1[C@@H]1COC(C)(C)O1` (stereo partly shown) [Compound 005], in assay [1], the IC50 was 32 µM.

For `CC1(C)OC[C@@H]([C@H]2OC(=O)C(O)=C2OCC#N)O1` [Compound 024], the IC50 in assay [1] stood at 31 µM.

Consider `CC1(C)OC[C@@H]([C@H]2OC(=O)C(O)=C2OCC(=O)c2ccccc2)O1` [Compound 023], for which the IC50 in assay [1] is 24 µM.

Regarding `CC1(C)OC[C@@H]([C@H]2OC(=O)C(O)=C2OCC(=O)OCc2ccccc2)O1` [Compound 016], the IC50 in assay [1] was found to be 25 µM.
